Source: patent US10870647B2, “Imidazopyridine derivative, method for preparing same, and pharmaceutical composition containing same as active ingredient for preventing or treating cancer” (DAEGU-GYEONGBUK MEDICAL INNOVATION FOUNDATION, priority 2016, dated 2020)

Experiments:
Test in all cases: Kinase selectivity, scanMAX Kinase assay panel (DiscoverX), % control at 1 uM
Type in all cases: binding
[1] = target: T1, scanMAX Kinase assay panel (Homo sapiens, UniProt P00533, L861Q); conditions: EGFR (L861Q); 1 uM; read-out: Percent Control (%)
T1 construct: purchased DiscoverX
Method in brief: (§1)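 Read-out is percent of control, derived from the signal with compound relative to positive and negative controls: (compound − positive)/(negative − positive) × 100. Each enzyme received test drug at 1 uM in DMSO, and values under 35% count as active.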

[2] = target: T2, scanMAX Kinase assay panel (Homo sapiens, UniProt P10721, T670I/V559D); conditions: KIT (V559D, T670I); 1 uM; read-out: Percent Control (%)
T2 construct: purchased DiscoverX
Method in brief: as §1

[3] = target: T3, scanMAX Kinase assay panel (Homo sapiens, UniProt P42336, E545A); conditions: PIK3CA (E545A); 1 uM; read-out: Percent Control (%)
T3 construct: purchased DiscoverX
Method in brief: as §1

[4] = target: T4, scanMAX Kinase assay panel (Homo sapiens, UniProt P51813); conditions: BMX; 1 uM; read-out: Percent Control (%)
T4 construct: purchased DiscoverX
T4 sequence (P51813 1-675): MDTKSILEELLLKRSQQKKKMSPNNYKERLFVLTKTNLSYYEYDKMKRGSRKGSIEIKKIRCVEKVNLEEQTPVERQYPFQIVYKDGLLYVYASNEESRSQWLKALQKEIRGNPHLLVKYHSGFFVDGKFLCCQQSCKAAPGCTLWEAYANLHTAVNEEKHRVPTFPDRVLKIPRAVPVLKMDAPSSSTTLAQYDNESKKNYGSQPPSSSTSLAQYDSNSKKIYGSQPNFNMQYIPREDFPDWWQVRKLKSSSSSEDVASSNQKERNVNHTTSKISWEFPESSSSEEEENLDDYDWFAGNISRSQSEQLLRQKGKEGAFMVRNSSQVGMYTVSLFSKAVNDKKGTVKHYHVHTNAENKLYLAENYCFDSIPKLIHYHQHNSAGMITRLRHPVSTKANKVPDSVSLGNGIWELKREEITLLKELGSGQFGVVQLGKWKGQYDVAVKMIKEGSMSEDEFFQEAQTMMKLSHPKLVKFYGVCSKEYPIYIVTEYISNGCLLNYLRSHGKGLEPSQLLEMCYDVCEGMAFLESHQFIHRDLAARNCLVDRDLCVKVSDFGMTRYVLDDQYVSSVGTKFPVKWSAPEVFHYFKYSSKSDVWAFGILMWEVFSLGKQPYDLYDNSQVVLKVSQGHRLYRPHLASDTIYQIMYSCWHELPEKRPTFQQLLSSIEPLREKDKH
Method in brief: as §1

[5] = target: T5, scanMAX Kinase assay panel (Homo sapiens, UniProt Q2M2I8); conditions: AAK1; 1 uM; read-out: Percent Control (%)
T5 construct: purchased DiscoverX
Method in brief: as §1

[6] = target: T6, scanMAX Kinase assay panel (Homo sapiens, UniProt Q7L7X3); conditions: TAOK1; 1 uM; read-out: Percent Control (%)
T6 construct: purchased DiscoverX
T6 sequence (Q7L7X3 1-1001): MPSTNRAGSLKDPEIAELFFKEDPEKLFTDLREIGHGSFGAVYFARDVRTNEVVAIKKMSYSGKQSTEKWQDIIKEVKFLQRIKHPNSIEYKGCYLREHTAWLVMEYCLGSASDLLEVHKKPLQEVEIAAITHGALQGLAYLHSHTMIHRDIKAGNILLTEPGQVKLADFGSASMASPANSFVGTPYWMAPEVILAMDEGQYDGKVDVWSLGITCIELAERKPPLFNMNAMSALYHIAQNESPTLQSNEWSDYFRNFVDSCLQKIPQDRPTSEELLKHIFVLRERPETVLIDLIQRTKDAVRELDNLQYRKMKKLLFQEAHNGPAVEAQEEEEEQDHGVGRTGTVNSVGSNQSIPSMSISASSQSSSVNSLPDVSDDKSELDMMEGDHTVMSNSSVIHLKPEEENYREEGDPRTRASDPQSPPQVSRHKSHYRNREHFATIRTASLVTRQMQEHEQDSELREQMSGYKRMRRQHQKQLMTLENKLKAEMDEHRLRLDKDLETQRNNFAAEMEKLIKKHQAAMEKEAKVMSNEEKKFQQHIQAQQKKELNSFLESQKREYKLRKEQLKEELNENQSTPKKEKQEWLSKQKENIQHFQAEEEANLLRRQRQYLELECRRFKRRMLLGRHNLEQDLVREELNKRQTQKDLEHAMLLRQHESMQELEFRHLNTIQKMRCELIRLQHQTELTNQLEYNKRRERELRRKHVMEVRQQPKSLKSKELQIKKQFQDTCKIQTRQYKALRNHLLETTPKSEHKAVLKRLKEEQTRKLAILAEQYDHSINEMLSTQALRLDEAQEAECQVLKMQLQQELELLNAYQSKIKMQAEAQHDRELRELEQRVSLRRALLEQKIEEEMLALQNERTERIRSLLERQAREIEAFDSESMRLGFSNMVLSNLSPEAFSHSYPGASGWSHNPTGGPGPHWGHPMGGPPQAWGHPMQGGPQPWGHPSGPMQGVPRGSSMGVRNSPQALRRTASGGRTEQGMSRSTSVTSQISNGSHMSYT
Method in brief: as §1

[7] = target: T7, scanMAX Kinase assay panel (Homo sapiens, UniProt Q9P2K8, S808G); conditions: GCN2 (Kin.Dom.2, S808G); 1 uM; read-out: Percent Control (%)
T7 construct: purchased DiscoverX
Method in brief: as §1

[8] = target: T8, scanMAX Kinase assay panel (Homo sapiens, UniProt Q9UQB9); conditions: AURKC; 1 uM; read-out: Percent Control (%)
T8 construct: purchased DiscoverX
T8 sequence (Q9UQB9 1-309): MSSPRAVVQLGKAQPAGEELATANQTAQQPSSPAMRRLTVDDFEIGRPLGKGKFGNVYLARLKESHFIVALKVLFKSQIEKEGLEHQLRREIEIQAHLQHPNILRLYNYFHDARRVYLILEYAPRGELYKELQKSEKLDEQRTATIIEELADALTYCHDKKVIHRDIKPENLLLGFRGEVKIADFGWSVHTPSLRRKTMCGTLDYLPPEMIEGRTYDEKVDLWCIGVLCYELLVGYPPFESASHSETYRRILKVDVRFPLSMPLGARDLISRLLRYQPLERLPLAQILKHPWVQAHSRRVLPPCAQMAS
Method in brief: as §1

[9] = target: T9, scanMAX Kinase assay panel (Plasmodium falciparum, UniProt P61075); conditions: PFPK5 (P. falciparum); 1 uM; read-out: Percent Control (%)
T9 construct: purchased DiscoverX
Method in brief: as §1

T7 sequence (Q9P2K8 whole entry S808G): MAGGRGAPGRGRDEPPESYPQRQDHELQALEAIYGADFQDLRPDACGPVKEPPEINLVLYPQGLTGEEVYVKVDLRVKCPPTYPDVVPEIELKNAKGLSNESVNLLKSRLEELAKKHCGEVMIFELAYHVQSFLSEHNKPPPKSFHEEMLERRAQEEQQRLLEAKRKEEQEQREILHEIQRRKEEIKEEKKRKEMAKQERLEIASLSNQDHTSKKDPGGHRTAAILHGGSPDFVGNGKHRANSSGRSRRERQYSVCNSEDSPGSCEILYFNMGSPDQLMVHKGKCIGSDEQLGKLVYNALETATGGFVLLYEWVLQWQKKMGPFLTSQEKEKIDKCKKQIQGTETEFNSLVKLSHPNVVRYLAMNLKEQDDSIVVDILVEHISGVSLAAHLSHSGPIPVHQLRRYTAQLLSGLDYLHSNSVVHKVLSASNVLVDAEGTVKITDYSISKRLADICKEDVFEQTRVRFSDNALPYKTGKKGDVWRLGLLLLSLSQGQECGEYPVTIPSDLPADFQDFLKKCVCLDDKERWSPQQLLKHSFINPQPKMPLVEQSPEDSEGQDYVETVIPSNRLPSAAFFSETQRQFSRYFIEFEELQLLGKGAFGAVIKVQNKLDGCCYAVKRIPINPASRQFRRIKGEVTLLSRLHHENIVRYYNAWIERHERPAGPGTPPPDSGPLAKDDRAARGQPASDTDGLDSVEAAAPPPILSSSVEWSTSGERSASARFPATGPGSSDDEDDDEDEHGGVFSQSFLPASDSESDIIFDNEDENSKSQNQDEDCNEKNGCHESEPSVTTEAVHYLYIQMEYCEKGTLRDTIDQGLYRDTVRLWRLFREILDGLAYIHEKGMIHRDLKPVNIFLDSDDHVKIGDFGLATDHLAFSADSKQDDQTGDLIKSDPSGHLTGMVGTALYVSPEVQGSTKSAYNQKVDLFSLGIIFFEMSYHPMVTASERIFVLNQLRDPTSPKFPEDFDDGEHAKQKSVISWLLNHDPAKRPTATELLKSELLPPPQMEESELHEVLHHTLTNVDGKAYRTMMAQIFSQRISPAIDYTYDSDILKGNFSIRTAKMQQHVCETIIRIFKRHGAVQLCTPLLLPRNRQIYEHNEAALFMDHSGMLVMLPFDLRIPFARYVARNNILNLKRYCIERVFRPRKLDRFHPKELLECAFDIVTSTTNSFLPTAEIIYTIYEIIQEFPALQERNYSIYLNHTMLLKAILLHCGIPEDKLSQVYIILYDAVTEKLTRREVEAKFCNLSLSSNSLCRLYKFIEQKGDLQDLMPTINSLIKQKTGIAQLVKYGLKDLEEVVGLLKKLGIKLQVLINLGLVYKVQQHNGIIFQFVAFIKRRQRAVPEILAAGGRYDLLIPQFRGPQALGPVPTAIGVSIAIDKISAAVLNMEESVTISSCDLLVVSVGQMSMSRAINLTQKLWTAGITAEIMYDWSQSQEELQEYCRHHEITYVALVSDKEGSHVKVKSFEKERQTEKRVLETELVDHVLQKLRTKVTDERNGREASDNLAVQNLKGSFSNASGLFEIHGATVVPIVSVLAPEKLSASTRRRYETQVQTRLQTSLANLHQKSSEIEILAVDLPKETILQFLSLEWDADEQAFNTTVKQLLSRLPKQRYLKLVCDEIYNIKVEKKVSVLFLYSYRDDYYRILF
T5 sequence (Q2M2I8 whole entry): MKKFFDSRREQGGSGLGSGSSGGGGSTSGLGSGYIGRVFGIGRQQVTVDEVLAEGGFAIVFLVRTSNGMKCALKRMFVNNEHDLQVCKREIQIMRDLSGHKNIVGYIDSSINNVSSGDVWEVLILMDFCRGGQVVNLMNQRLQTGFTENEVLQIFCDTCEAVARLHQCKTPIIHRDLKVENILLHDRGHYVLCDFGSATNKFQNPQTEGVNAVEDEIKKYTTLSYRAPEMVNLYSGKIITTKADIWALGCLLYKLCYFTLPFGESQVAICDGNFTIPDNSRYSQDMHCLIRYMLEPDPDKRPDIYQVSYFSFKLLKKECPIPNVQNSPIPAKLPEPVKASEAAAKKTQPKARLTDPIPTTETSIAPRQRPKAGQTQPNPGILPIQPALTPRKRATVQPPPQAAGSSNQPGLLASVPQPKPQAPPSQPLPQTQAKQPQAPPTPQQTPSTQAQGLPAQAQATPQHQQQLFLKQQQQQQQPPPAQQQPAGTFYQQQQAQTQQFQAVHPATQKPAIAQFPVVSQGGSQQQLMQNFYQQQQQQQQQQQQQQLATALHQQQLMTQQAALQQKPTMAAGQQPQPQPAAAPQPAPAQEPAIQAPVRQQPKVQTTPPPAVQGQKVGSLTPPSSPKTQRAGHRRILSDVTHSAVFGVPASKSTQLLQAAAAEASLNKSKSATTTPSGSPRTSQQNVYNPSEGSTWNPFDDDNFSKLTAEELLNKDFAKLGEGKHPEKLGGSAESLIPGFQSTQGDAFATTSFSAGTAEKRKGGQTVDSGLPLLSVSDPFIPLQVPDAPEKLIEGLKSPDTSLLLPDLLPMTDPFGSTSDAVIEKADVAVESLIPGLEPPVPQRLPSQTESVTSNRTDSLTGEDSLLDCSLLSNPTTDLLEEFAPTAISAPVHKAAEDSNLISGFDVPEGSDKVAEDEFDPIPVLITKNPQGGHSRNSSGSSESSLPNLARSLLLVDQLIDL
T3 sequence (P42336 whole entry E545A): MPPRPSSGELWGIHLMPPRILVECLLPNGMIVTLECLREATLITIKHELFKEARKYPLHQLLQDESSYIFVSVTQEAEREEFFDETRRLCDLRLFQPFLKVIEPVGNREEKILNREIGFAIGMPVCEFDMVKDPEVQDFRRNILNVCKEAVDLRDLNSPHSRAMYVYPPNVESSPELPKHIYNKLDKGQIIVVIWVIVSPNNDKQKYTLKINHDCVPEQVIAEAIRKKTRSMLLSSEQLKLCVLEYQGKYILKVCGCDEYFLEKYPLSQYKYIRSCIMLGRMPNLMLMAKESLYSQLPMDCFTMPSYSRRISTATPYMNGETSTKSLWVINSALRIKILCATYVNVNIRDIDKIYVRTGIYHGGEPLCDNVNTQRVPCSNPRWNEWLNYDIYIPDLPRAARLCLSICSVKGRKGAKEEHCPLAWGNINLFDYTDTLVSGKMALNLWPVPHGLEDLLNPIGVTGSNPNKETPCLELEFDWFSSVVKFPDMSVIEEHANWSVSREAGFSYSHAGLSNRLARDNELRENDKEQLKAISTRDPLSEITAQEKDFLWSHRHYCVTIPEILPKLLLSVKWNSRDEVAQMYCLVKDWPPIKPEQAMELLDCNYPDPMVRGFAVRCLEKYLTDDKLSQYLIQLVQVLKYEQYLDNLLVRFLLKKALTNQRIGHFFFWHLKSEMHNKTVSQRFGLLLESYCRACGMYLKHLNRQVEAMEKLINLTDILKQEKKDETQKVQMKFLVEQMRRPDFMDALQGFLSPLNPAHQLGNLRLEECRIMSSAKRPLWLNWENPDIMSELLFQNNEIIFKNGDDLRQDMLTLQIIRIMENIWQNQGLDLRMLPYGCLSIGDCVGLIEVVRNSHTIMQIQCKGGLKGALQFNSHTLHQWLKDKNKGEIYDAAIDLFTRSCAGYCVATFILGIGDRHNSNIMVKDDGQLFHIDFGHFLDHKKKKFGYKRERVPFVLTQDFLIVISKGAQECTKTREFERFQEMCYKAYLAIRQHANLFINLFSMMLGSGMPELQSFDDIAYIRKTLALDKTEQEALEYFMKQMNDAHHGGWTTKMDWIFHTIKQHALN
T9 sequence (P61075 whole entry): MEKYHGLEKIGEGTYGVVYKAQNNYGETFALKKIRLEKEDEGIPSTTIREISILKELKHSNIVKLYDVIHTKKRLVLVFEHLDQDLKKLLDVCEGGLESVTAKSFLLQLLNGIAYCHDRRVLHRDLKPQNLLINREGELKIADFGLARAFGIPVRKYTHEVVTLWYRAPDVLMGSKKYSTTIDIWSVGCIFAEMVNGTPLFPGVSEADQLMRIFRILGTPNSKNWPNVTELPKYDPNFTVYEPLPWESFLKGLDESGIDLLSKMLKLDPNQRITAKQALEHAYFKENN
T2 sequence (P10721 26-976 V559D/T670I): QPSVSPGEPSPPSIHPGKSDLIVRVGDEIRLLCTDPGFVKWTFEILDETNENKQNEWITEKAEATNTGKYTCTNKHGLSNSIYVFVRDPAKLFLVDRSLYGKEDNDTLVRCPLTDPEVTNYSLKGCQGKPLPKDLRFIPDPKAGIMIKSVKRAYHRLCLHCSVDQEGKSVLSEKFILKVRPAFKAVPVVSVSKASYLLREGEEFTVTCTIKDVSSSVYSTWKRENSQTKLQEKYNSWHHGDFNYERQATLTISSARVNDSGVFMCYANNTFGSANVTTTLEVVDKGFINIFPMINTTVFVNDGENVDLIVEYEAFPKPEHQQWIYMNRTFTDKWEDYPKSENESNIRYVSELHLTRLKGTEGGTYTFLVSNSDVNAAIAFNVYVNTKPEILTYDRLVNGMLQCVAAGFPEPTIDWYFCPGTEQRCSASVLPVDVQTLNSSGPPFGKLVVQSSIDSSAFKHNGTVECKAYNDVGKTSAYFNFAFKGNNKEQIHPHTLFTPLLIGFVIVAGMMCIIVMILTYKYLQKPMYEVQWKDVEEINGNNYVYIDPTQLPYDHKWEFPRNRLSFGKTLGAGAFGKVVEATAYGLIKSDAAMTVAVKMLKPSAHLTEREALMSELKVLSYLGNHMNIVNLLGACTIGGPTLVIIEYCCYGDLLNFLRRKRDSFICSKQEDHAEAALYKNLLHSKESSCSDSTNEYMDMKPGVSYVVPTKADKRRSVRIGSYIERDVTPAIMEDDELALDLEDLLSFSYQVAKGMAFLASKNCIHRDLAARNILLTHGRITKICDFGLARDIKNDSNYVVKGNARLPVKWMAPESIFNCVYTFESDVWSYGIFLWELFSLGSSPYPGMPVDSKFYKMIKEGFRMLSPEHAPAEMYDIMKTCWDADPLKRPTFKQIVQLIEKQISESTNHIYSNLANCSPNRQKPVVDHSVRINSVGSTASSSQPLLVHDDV

| Compound | remaining binding at 1 µM [1] | remaining binding at 1 µM [2] | remaining binding at 1 µM [3] | remaining binding at 1 µM [4] | remaining binding at 1 µM [5] | remaining binding at 1 µM [6] | remaining binding at 1 µM [7] | remaining binding at 1 µM [8] | remaining binding at 1 µM [9] |
| --- | --- | --- | --- | --- | --- | --- | --- | --- | --- |
| Cc1ccc(NC(=O)C2(C(=O)Nc3ccc(F)cc3)CC2)cc1C#Cc1cnc2c(Nc3cnn(C(C)C)c3)cccn12 [Example 78] | 92% | 63% | 100% | 96% | 100% | 89% | 89% | 88% | 93% |
| Cc1cn(-c2cc(NC(=O)c3ccc(C)c(C#Cc4cnc5c(Nc6cnn(C)c6)cccn45)c3)cc(C(F)(F)F)c2)cn1 [Example 12, 4-methyl-N-(3-(4-methyl-1H-imidazol-1-yl)-5-(trifluoromethyl)phenyl)-3-((8-((1-methyl-1H-pyrazol-4-yl)amino)imidazo[1,2-a]pyridin-3-yl)ethynyl)benzamide] | 22% | 3% | 79% | 9% | 85% | 100% | 76% | 48% | 100% |
| Cc1ccc(C(=O)Nc2ccc(CN3CCN(C)CC3)c(C(F)(F)F)c2)cc1C#Cc1cnc2c(Nc3cnn(C)c3)cccn12 [Example 1, 4-methyl-3-((8-((1-methyl-1H-pyrazol-4-yl)amino)imidazo[1,2-a]pyridin-3-yl)ethynyl)-N-(4-((4-methylpiperazin-1-yl)methyl)-3-(trifluoromethyl)phenyl)benzamide] | 1% | 0% | 87% | 3% | 64% | 51% | 0% | 1% | 87% |
